Experimental data reported in ChEMBL document CHEMBL5634077, “Recent advances in 1,2,3- and 1,2,4-triazole hybrids as antimicrobials and their SAR: A critical review” (2023).
Converted amounts (≈) assume the structure as drawn.

How the values were obtained:
Assay type in all cases: functional
[1] = test system: Staphylococcus epidermidis; assay: Antibacterial activity against Staphylococcus epidermidis assessed as inhibition of bacterial growth by microdilution method
[2] = test system: Staphylococcus aureus; assay: Antibacterial activity against Staphylococcus aureus assessed as inhibition of bacterial growth by microdilution method
[3] = test system: Bacillus subtilis; assay: Antibacterial activity against Bacillus subtilis assessed as inhibition of bacterial growth by microdilution method
[4] = test system: Staphylococcus aureus; assay: Antibacterial activity against methicillin-resistant Staphylococcus aureus assessed as reduction in microbial growth incubated for 18 to 24 hrs by serial dilution method; details: time 18-24 hrs
[5] = test system: Staphylococcus aureus; assay: Antibacterial activity against methicillin-sensitive Staphylococcus aureus assessed as reduction in microbial growth incubated for 18 to 24 hrs by serial dilution method; details: time 18-24 hrs
[6] = test system: Staphylococcus aureus; assay: Antibacterial activity against Staphylococcus aureus assessed as reduction in microbial growth incubated for 18 to 24 hrs by serial dilution method; details: time 18-24 hrs
[7] = test system: Bacillus subtilis; assay: Antibacterial activity against Bacillus subtilis MTCC 441 assessed as reduction in microbial growth
[8] = test system: Aspergillus niger; assay: Antifungal activity against Aspergillus niger MTCC 8189 assessed as inhibition of fungal growth
[9] = test system: Staphylococcus epidermidis; assay: Antibacterial activity against Staphylococcus epidermidis assessed as reduction in microbial growth
[10] = test system: Candida albicans; assay: Antifungal activity against Candida albicans MTCC 227 assessed as inhibition of fungal growth
[11] = test system: Escherichia coli; assay: Antibacterial activity against Escherichia coli MTCC 16521 assessed as reduction in microbial growth

## Fc1cc(-n2cc(CN3c4ccccc4Sc4ccccc43)nn2)ccc1N1CCOCC1
[1]
  MIC: 25 µg/mL (≈ 54.4 µM)
[2]
  MIC: 12.5 µg/mL (≈ 27.2 µM)
[3]
  MIC: 6.25 µg/mL (≈ 13.6 µM)

## CO/N=C1/C(=O)N(Cc2cn(CC(=O)N3CCN(c4c(F)cc5c(=O)c(C(=O)O)cn(C6CC6)c5c4OC)CC3C)nn2)c2ccc(F)cc21 (centres undefined)
[4]
  MIC: 0.03 µg/mL
[5]
  MIC: 0.03 µg/mL
[6]
  MIC: 0.03 µg/mL

## CCO/N=C1/C(=O)N(Cc2cn(CC(=O)N3CCN(c4c(F)cc5c(=O)c(C(=O)O)cn(C6CC6)c5c4OC)CC3C)nn2)c2ccc(C)cc21 (centres undefined)
[4]
  MIC: 0.03 µg/mL
[5]
  MIC: 0.03 µg/mL
[6]
  MIC: 0.03 µg/mL

## O=C(NCc1cn(Cc2cccc(Cn3cc(CNC(=O)Nc4ccc(F)cc4)nn3)c2)nn1)Nc1ccc(F)cc1
[7]
  MIC: 6 µM
[8]
  MIC: 6 µM (≈ 3.44 µg/mL)
[9]
  MIC: 6 µM
[10]
  MIC: 6 µM (≈ 3.44 µg/mL)
[11]
  MIC: 6 µM

## CN[C@@H]1[C@H](O[C@H]2[C@H](O[C@H]3[C@H](O)[C@@H](O)[C@H](N=C(N)N)[C@@H](O)[C@@H]3N=C(N)N)O[C@@H](C)[C@]2(O)C=O)O[C@@H](CO)[C@H](O)[C@H]1O [STREPTOMYCIN]
[1]
  MIC: 3.12 µg/mL (≈ 5.36 µM)
[2]
  MIC: 6.25 µg/mL (≈ 10.7 µM)
[3]
  MIC: 6.25 µg/mL (≈ 10.7 µM)

## O=C(OCc1cn(-c2ccc(N3CCOCC3)c(F)c2)nn1)c1cc2ccccc2[nH]1
[1]
  MIC: 3.12 µg/mL (≈ 7.4 µM)
[2]
  MIC: 25 µg/mL (≈ 59.3 µM)
[3]
  MIC: 25 µg/mL (≈ 59.3 µM)

## COc1ccc(NC(=O)NCc2cn(CCCCn3cc(CNC(=O)Nc4ccc(OC)cc4)nn3)nn2)cc1
[7]
  MIC: 6 µM
[8]
  MIC: 5 µM (≈ 2.74 µg/mL)
[9]
  MIC: 6 µM
[10]
  MIC: 6 µM (≈ 3.29 µg/mL)
[11]
  MIC: 6 µM

## COc1c(N2CCN(C(=O)Cn3cc(CN4C(=O)C(=O)c5ccccc54)nn3)C(C)C2)c(F)cc2c(=O)c(C(=O)O)cn(C3CC3)c12 (centres undefined)
[4]
  MIC: 0.03 µg/mL
[5]
  MIC: 0.03 µg/mL
[6]
  MIC: 0.03 µg/mL

## Fc1ccccc1OCc1cn(-c2ccc(N3CCOCC3)c(F)c2)nn1
[1]
  MIC: 6.25 µg/mL (≈ 16.8 µM)
[2]
  MIC: 12.5 µg/mL (≈ 33.6 µM)
[3]
  MIC: 3.12 µg/mL (≈ 8.38 µM)

## COc1c(N2CCN(C(=O)Cn3cc(CN4C(=O)/C(=N/O)c5cc(F)ccc54)nn3)C(C)C2)c(F)cc2c(=O)c(C(=O)O)cn(C3CC3)c12 (centres undefined)
[4]
  MIC: 0.03 µg/mL
[5]
  MIC: 0.03 µg/mL
[6]
  MIC: 0.03 µg/mL

## Fc1cc(-n2cc(CSc3nc4cc(Br)ccc4s3)nn2)ccc1N1CCOCC1
[1]
  MIC: 50 µg/mL (≈ 98.7 µM)
[2]
  MIC: 50 µg/mL (≈ 98.7 µM)
[3]
  MIC: 25 µg/mL (≈ 49.4 µM)

## CO/N=C1/C(=O)N(Cc2cn(CC(=O)N3CCN(c4c(F)cc5c(=O)c(C(=O)O)cn(C6CC6)c5c4OC)CC3C)nn2)c2ccccc21 (centres undefined)
[4]
  MIC: 0.03 µg/mL
[5]
  MIC: 0.03 µg/mL
[6]
  MIC: 0.03 µg/mL

## Fc1ccc(OCc2cn(-c3ccc(N4CCOCC4)c(F)c3)nn2)cc1
[1]
  MIC: 3.12 µg/mL (≈ 8.38 µM)
[2]
  MIC: 3.12 µg/mL (≈ 8.38 µM)
[3]
  MIC: 1.56 µg/mL (≈ 4.19 µM)

## O=C1COc2cc(Br)ccc2N1Cc1cn(-c2ccc(N3CCOCC3)c(F)c2)nn1
[1]
  MIC: 25 µg/mL (≈ 51.2 µM)
[2]
  MIC: 25 µg/mL (≈ 51.2 µM)
[3]
  MIC: 25 µg/mL (≈ 51.2 µM)

## COc1ccc(NC(=O)NCc2cn(CCCCCn3cc(CNC(=O)Nc4ccc(OC)cc4)nn3)nn2)cc1
[7]
  MIC: 6 µM
[8]
  MIC: 6 µM (≈ 3.38 µg/mL)
[9]
  MIC: 6 µM
[10]
  MIC: 6 µM (≈ 3.38 µg/mL)
[11]
  MIC: 6 µM

## O=C(NCc1cn(CCCCCn2cc(CNC(=O)Nc3ccc(Cl)cc3)nn2)nn1)Nc1ccc(Cl)cc1
[7]
  MIC: 6 µM
[8]
  MIC: 6 µM (≈ 3.43 µg/mL)
[9]
  MIC: 6 µM
[10]
  MIC: 6 µM (≈ 3.43 µg/mL)
[11]
  MIC: 6 µM

## CCO/N=C1/C(=O)N(Cc2cn(CC(=O)N3CCN(c4c(F)cc5c(=O)c(C(=O)O)cn(C6CC6)c5c4OC)CC3C)nn2)c2ccc(F)cc21 (centres undefined)
[4]
  MIC: 0.03 µg/mL
[5]
  MIC: 0.03 µg/mL
[6]
  MIC: 0.03 µg/mL

## COc1c(N2CCN(C(=O)Cn3cc(CN4C(=O)C(=O)c5cc(F)ccc54)nn3)C(C)C2)c(F)cc2c(=O)c(C(=O)O)cn(C3CC3)c12 (centres undefined)
[4]
  MIC: 0.03 µg/mL
[5]
  MIC: 0.03 µg/mL
[6]
  MIC: 0.03 µg/mL

## Fc1cc(-n2cc(COc3cc(Cl)cc(Cl)c3)nn2)ccc1N1CCOCC1
[1]
  MIC: 12.5 µg/mL (≈ 29.5 µM)
[2]
  MIC: 6.25 µg/mL (≈ 14.8 µM)
[3]
  MIC: 12.5 µg/mL (≈ 29.5 µM)

## O=C1CS(=O)(=O)c2ccccc2N1Cc1cn(-c2ccc(N3CCOCC3)c(F)c2)nn1
[1]
  MIC: 50 µg/mL (≈ 109 µM)
[2]
  MIC: 12.5 µg/mL (≈ 27.3 µM)
[3]
  MIC: 3.12 µg/mL (≈ 6.82 µM)

## CCO/N=C1/C(=O)N(Cc2cn(CC(=O)N3CCN(c4c(F)cc5c(=O)c(C(=O)O)cn(C6CC6)c5c4OC)CC3C)nn2)c2ccccc21 (centres undefined)
[4]
  MIC: 0.03 µg/mL
[5]
  MIC: 0.03 µg/mL
[6]
  MIC: 0.03 µg/mL

## Fc1cc(-n2cc(COc3cccc4cccnc34)nn2)ccc1N1CCOCC1
[1]
  MIC: 25 µg/mL (≈ 61.7 µM)
[2]
  MIC: 50 µg/mL (≈ 123 µM)
[3]
  MIC: 25 µg/mL (≈ 61.7 µM)

## COc1ccc(NC(=O)NCc2cn(CCCCCCn3cc(CNC(=O)Nc4ccc(OC)cc4)nn3)nn2)cc1
[7]
  MIC: 6 µM
[8]
  MIC: 6 µM (≈ 3.46 µg/mL)
[9]
  MIC: 6 µM
[10]
  MIC: 6 µM (≈ 3.46 µg/mL)
[11]
  MIC: 6 µM

## O=C(NCc1cn(CCCCn2cc(CNC(=O)Nc3ccc(Cl)cc3)nn2)nn1)Nc1ccc(Cl)cc1
[7]
  MIC: 6 µM
[8]
  MIC: 6 µM (≈ 3.34 µg/mL)
[9]
  MIC: 6 µM
[10]
  MIC: 6 µM (≈ 3.34 µg/mL)
[11]
  MIC: 6 µM
